Experimental findings from US8846627B2, “Method for treatment of malaria” (The Second Military Medical University, priority 2009, dated 2014) are described below.

Molecules are shown by their SMILES.

Assay [1] relates to chloroquine sensitive (D6) strain of P. falciparum. Description: In vitro anti-malarial activity assay (plasmodial LDH activity), D6 clone. The assay is classed as cell-based. The conditions noted are these: Plasmodium falciparum, D6; 72 h incubation, LDH readout; read-out: P. falciparum (D6 Clone) IC50. The procedure:
(§1) In vitro anti-malarial activity of the representative compounds was determined against chloroquine sensitive (D6) and chloroquine-resistant (W2) strains of P. falciparum.
(§2) The anti-malarial activity was determined by measuring plasmodial LDH activity as described earlier (Jain, M.; Khan, S. I.; Tekwani, B. L.; Jacob, M. R.; Singh, S.; Singh, P. P.; Jain, R. Synthesis, anti-malarial, antileishmanial, and antimicrobial activities of some 8-quinolinamine analogues. Bioorg. Med. Chem. 2005, 13, 4458-4466). A suspension of red blood cells infected with D6 or W2 strains of P. falciparum (200 with 2% parasitemia and 2% hematocrit in RPMI 1640 medium supplemented with 10% human serum and 60 µg/mL Amikacin) was added to the wells of a 96-well plate containing 10 μL of serially diluted test samples. The plate was flushed with a gas mixture of 90% N2, 5% O2, and 5% CO2 and incubated at 37° C. for 72 h in a modular incubation chamber (Billups-Rothenberg, Calif.). Parasitic LDH activity was determined by using Malstat™ reagent (Flow Inc., Portland, Oreg.) according to the procedure of Makler and Hinrichs (M. T. Makler and D. J. Hinrichs, Measurement of the lactate dehydrogenase activity of Plasmodium falciparum as an assessment of parasitemia. J. Am. J. Trop. Med. Hyg. 1993, 48(2):205-210). Briefly, 20 μl, of the incubation mixture was mixed with 100 μL of the Malstat™ reagent and incubated at room temperature for 30 min Twenty microliters of a 1:1 mixture of NBT/PES (Sigma, St. Louis, Mo.) was then added and the plate was further incubated in the dark for 1 h. The reaction was then stopped by the addition of 100 μL of a 5% acetic acid solution. The plate was read at 650 nm. Artemisinin and chloroquine were included in each assay as the drug controls. IC50 values were computed from the dose-response curves. To determine the selectivity index of anti-malarial activity of compounds, their cytotoxicity in vitro to mammalian cells was also determined. The assay was performed in 96-well tissue culture-treated plates as described earlier (J. Mustafa, S. I. Khan, G. Ma, L. A. Walker and I. A. Khan, Synthesis and Anticancer Activities of Fatty Acid Analogs of Podophyllotoxin. Lipids. 2004, 39(2):167-172). Vero cells (monkey kidney fibroblasts) were seeded to the wells of 96-well plate at a density of 25,000 cells/well and incubated for 24 h. Samples at different concentrations were added and plates were again incubated for 48 h. The number of viable cells was determined by Neutral Red assay. IC50 values were obtained from dose-response curves. Doxorubicin was used as a positive control.

Assay [2] has as its system chloroquine-resistant (W2) strain of P. falciparum. Nature of the assay: In vitro anti-malarial activity assay (plasmodial LDH activity), W2 clone. The format is cell-based. The conditions noted are these: Plasmodium falciparum, W2; 72 h incubation, LDH readout; read-out: P. falciparum (W2 Clone) IC50. The procedure:
as §1, §2

The target in assay [3] is T1, Falcipain-2 protease (FP-2) (Plasmodium falciparum, UniProt Q8I6U4).
T1 construct: The falcipain-2 fragment was amplified by the polymerase chain reaction (PCR); His6 (N-terminal MRGS-His6 supplied by the pQE-30 vector; own knowledge of the vector, consistent with the Ni2+-NTA purification) (N); made in house; host or cells: E. coli M15
T1 sequence (Q8I6U4 244-484): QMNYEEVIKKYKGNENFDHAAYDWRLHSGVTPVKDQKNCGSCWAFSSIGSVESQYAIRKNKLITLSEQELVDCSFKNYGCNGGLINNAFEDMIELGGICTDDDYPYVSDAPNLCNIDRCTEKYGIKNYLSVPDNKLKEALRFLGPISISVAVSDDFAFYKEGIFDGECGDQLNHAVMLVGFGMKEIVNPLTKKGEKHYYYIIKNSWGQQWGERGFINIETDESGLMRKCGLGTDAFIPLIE
Nature of the assay: Falcipain-2 protease inhibition assay (fluorescence reaction rate). The assay is classed as biochemical. The procedure: (1) Expression and Purification of Falcipain-2 and Refolding of FP-2 Inclusion Bodies Protein
(2) The Determination of the Invention Compounds' Inhibitory Activity Against FP-2
FP-2 protein and test compounds dissolved in DMSO (prepared from EXAMPLES 1-4) were added to 197 μL, buffer, containing 100 mM NaOAc, 10 mM DTT, pH 5.5 (final concentration 10 μg/mL). The test compound were Stenopalustroside A, Stenopalustroside D, Tiliroside, kaempferol 3-O-β-(6″-caffeoylglucoside) and kaempferol 3-(2,4-di-E-p-coumaroyl-rhamnoside), respectively, which final concentration were 10 μM and 0 μM (as negative control). These compounds were incubated for […] and employed MD SpectraMax M5 Microplate Reader to continuous detect the RFU for 15 min, at excitation 355 nm and emission 460 nm Calculate the reaction rate Km, and obtain percentage inhibitory rate of the test compound at 10 μM by the following equation,
The equation is: (Kmof control group−Kmof experimental group)/Kmof control group×100%
Select […] compounds with over 50% inhibitory rate to detect IC50, and utilize the compound solutions prepared from EXAMPLE 1 to EXAMPLE 4, Stenopalustroside A, tiliroside kaempferol 3-O-β-(6″-caffeoylglucoside), and the experimental methods and system followed as EXAMPLE 6. According to FP-2 activity reaction rate Km with compounds at different concentrations, we can calculate the inhibitory rate of compounds against FP-2 at different concentration. The IC50 value was fitted with utilizing the Sigmoidal Equation by Origin software.

Usually IC50 stands for the point on the concentration scale where inhibition reaches its midpoint. By inhibition is commonly meant the change of the read-out against control, counted positive when it falls.

With `O=C(/C=C/c1ccc(O)cc1)OC[C@H]1O[C@@H](Oc2c(-c3ccc(O)cc3)oc3cc(O)cc(O)c3c2=O)[C@H](O)[C@@H](O)[C@@H]1O` [Tiliroside], the IC50 in assay [1] was 123 µM; in assay [2], 106 µM; in assay [3], 13.1 µM. Besides, testing at 10 µM in assay [3] (10 μM compound, pH 5.5) gave an inhibition of 64.4%.
